Reference: US12036228B2, “Treatment of seizure disorders” (Shackelford Pharma Inc., priority 2022, dated 2024)
Where “and” joins values, the source holds several entries; their conditions need not be identical. Equal entries are not always repeated. Where two headings read alike, the source gives them in different places.

Experiments:
[1] = system: seizures in human patient; assay: Example 3 human patient, GTC and complex partial seizures; assay type: in vivo; details: including ataxia; discontinued after 6 months
Source text: A patient first started having GTC and complex partial (CP) seizures. […] The patient was referred for evaluation for initiation of cannabinoid/THC treatment in March 2014.

[2] = system: male CD-1 mice, 6 Hz (22 mA) corneal stimulus psychomotor seizure; assay: Mouse 6 Hz seizure (22 mA) test; assay type: in vivo; details: for % Seizure, group / % Seizure / F. Clonus / Lat H. Movement / Straub T. / Stun / Total (seizure score) / Total (seizure score), group mean / ED50: 30 min before test; for % Seizure: individual animals (0/1); for F. Clonus / Lat H. Movement / Straub T. / Stun / Total (seizure score): individual animals; for ED50: Mus musculus, IP
Protocol: This study assessed the anti-epileptic effects of low doses of dronabinol in the mouse 6 Hz seizure (22 mA) test at 4 dose levels. Sixty male CD-1 mice were randomly allocated to 1 of 7 treatment groups outlined in Table 1 below. The mice were purchased from Charles River Laboratories (St. Constant, Quebec, Canada). On the day of the experiment, general health observations and body weight measurements were performed prior to dosing. Thirty (30) minutes after administration of assigned treatments in Table 1, animals underwent a neurological assessment followed immediately by 6 Hz testing. Descriptions of these procedures are provided below.
Dronabinol and sodium valproate were dissolved in their respective vehicles on the day of dosing. Treatments were intraperitoneally administered to the lower right quadrant of the abdomen according to standard operating procedures. Treatment group summaries are included in Table 1.
On the scheduled test day, subjects received a dose of their assigned treatment 30 minutes before the electrical stimulus. Following neurological assessments, animals then received an electrical stimulus (6 Hz, 0.2 millisecond pulse width, 3 second duration, 22 mA) via corneal electrodes moistened with saline (ECT unit 57800; Ugo Basile). In approximately 50% of control animals, these stimulus parameters should elicit a psychomotor seizure within 30 seconds of stimulus delivery, defined as the expression of at least one of the following behaviours: stun/immobility, forelimb clonus, straub tail, or lateral head movement. Protection was defined as complete absence of the following: stun/immobility, forelimb clonus, straub tail and/or lateral head movement, within 30 seconds of stimulus delivery. A seizure score was assigned to each animal based on the number of these behaviours expressed by the animal after stimulus application. Once the animal either entered into a seizure, or 30 seconds elapsed, the endpoint was reached, and the animal was immediately euthanized.
All statistical analyses were performed using GraphPad Prism v.7.03. Analysis of variance (ANOVA) was completed for total seizure score data with the independent grouping variable of treatment (i.e., test article dose and control). In the event of a significant main effect, post-hoc Fisher's least significant difference analysis was conducted to compare vehicle with drug treatment.

male CD-1 mice = assay: Neurological assessment (score 0-3) immediately prior to seizure test; assay type: in vivo, mouse; set-up: key to Neurological Score: 0: Normal; 1: Modest decrease in spontaneous activity; 2: Marked decrease in spontaneous activity; 3: Loss of righting reflex; details: for Neurological Score: 30 min after dosing, individual animals
Protocol: Immediately prior to each seizure test, a brief neurological assessment was performed.

[3] = system: GTC seizures in human patient; assay: Example 2 human patient, Dravet syndrome; assay type: in vivo
Protocol: A patient first started having seizures and was subsequently diagnosed with Dravet syndrome. Initially, they were having clusters of 2 GTC seizures a day for 2 days occurring about every 2 weeks. Keppra was ineffective as were other combinations of anti-epileptic drugs. Several different combinations were tried and by the time they were first seen for evaluation for cannabinoid treatment on Aug. 7, 2014, they were taking Depakote 125 mg BID, Clonazepam 0.5 mg TID, and Versed/Diastat as needed for rescue but was still having clusters of GTC seizures every 2 weeks. The patient had started a CBD product on Jul. 3, 2014 (product analysis: 11.2 mg CBD/gm with 0.38 mg THC/gm at a dose of 0.7 mL TID (unknown concentration per mL), but seizures still were occurring irregularly—primarily GTC occurring in clusters of 1-2 per day every two weeks, rare atonic, and occasional eye-flutters.

[4] = system: GTC seizures in human patient; assay: Example 7 human patient, intractable GTC seizures; assay type: in vivo
Source text: A patient was first diagnosed with intractable GTC seizures without status epilepticus in 2001.
The patient first presented for cannabinoid treatment on May 24, 2013. They were then a PhD student in economics. The patient's medical history is significant for having a car accident with a concussion and “scarring”. They developed GTC seizures occurring 3 times per month. […] In 2008, they started using recreational cannabis occasionally, but not regularly.

CCCC(CCC)C(=O)O [Depakote]
side effects [1]: debilitating side effects

CCCCCc1cc(O)c2c(c1)OC(C)(C)[C@@H]1CCC(C)=C[C@@H]21 [Dronabinol]
% Seizure, group ([2]; 0.002 mg/kg IP, N = 8): 62.5%
% Seizure ([2]; 0.002 mg/kg IP, N = 8): 1 (5×) and 0 (3×)
F. Clonus ([2]; 0.002 mg/kg IP, N = 8): 1 (4×) and 0 (4×)
Lat H. Movement ([2]; 0.002 mg/kg IP, N = 8): 1 (3×) and 0 (5×)
Straub T. ([2]; 0.002 mg/kg IP, N = 8): 0 (7×) and 1
Stun ([2]; 0.002 mg/kg IP, N = 8): 1 (4×) and 0 (4×)
Total (seizure score) ([2]; 0.002 mg/kg IP, N = 8): 3 (2×) and 2 (3×) and 0 (3×)
Total (seizure score), group mean ([2]; 0.002 mg/kg IP, N = 8): 1.5
% Seizure, group ([2]; 0.02 mg/kg IP, N = 8): 50.0%
% Seizure ([2]; 0.02 mg/kg IP, N = 8): 0 (4×) and 1 (4×)
F. Clonus ([2]; 0.02 mg/kg IP, N = 8): 0 (7×) and 1
Lat H. Movement ([2]; 0.02 mg/kg IP, N = 8): 0 (5×) and 1 (3×)
Straub T. ([2]; 0.02 mg/kg IP, N = 8): 0 (7×) and 1
Stun ([2]; 0.02 mg/kg IP, N = 8): 0 (5×) and 1 (3×)
Total (seizure score) ([2]; 0.02 mg/kg IP, N = 8): 0 (4×) and 2 (2×) and 1 and 3
Total (seizure score), group mean ([2]; 0.02 mg/kg IP, N = 8): 1.0
% Seizure, group ([2]; 0.2 mg/kg IP, N = 8): 50.0%
% Seizure ([2]; 0.2 mg/kg IP, N = 8): 0 (4×) and 1 (4×)
F. Clonus ([2]; 0.2 mg/kg IP, N = 8): 0 (6×) and 1 (2×)
Lat H. Movement ([2]; 0.2 mg/kg IP, N = 8): 0 (7×) and 1
Straub T. ([2]; 0.2 mg/kg IP, N = 8): 0 (5×) and 1 (3×)
Stun ([2]; 0.2 mg/kg IP, N = 8): 0 (4×) and 1 (4×)
Total (seizure score) ([2]; 0.2 mg/kg IP, N = 8): 0 (4×) and 3 (2×) and 2 (2×)
Total (seizure score), group mean ([2]; 0.2 mg/kg IP, N = 8): 1.3
% Seizure, group ([2]; 2 mg/kg IP, N = 11): 54.5%
% Seizure ([2]; 2 mg/kg IP, N = 11): 1 (6×) and 0 (5×)
F. Clonus ([2]; 2 mg/kg IP, N = 11): 1 (5×) and 0 (6×)
Lat H. Movement ([2]; 2 mg/kg IP, N = 11): 0 (8×) and 1 (3×)
Straub T. ([2]; 2 mg/kg IP, N = 11): 0 (10×) and 1
Stun ([2]; 2 mg/kg IP, N = 11): 0 (8×) and 1 (3×)
Total (seizure score) ([2]; 2 mg/kg IP, N = 11): 1 (2×) and 0 (5×) and 2 (3×) and 4
Total (seizure score), group mean ([2]; 2 mg/kg IP, N = 11): 1.0
seizure incidence in the 6 HZ seizure test ([2]; 4 mg/kg IP): Decreased seizure incidence
% Seizure, group ([2]; 4 mg/kg IP, N = 9): 33.3%
% Seizure ([2]; 4 mg/kg IP, N = 9): 0 (6×) and 1 (3×)
F. Clonus ([2]; 4 mg/kg IP, N = 9): 0
Lat H. Movement ([2]; 4 mg/kg IP, N = 9): 0
Straub T. ([2]; 4 mg/kg IP, N = 9): 0 (8×) and 1
Stun ([2]; 4 mg/kg IP, N = 9): 0 (6×) and 1 (3×)
Total (seizure score) ([2]; 4 mg/kg IP, N = 9): 0 (6×) and 1 (2×) and 2
Total (seizure score), group mean ([2]; 4 mg/kg IP, N = 9): 0.4
seizure scores (mean±SEM) vs vehicle, post-hoc analysis ([2]; 0.02, 2, and 4 mg/kg doses IP, p<0.05): reduction in seizure scores
ED50 ([2]; 0.002 to 4 mg/kg doses, 95% confidence limits 1.36-11.82 mg/kg, read-out: ED50, decrease in percentage incidence of seizures): 4.01 mg/kg
ED50 ([2]; 95% CI (0.01-1.05), read-out: ED50, decrease in the seizure score): 0.1 mg/kg
Neurological Score (male CD-1 mice; 0.002 mg/kg IP, N = 8): 0
Neurological Score, group mean (male CD-1 mice; 0.002 mg/kg IP, N = 8): 0.0
Neurological Score (male CD-1 mice; 0.02 mg/kg IP, N = 8): 0
Neurological Score, group mean (male CD-1 mice; 0.02 mg/kg IP, N = 8): 0.0
Neurological Score (male CD-1 mice; 0.2 mg/kg IP, N = 8): 0
Neurological Score, group mean (male CD-1 mice; 0.2 mg/kg IP, N = 8): 0.0
effect on behaviour as measured by neurological scoring (male CD-1 mice; 0.002-4 mg/kg IP): no measurable effect on behaviour
Neurological Score (male CD-1 mice; 2 mg/kg IP, N = 11): 0
Neurological Score, group mean (male CD-1 mice; 2 mg/kg IP, N = 11): 0.0
Neurological Score (male CD-1 mice; 4 mg/kg IP, N = 9): 0
Neurological Score, group mean (male CD-1 mice; 4 mg/kg IP, N = 9): 0.0

CC[C@@H](C(N)=O)N1CCCC1=O [Keppra, levetiracetam]
effect on seizures ([3]; Dravet patient, initial treatment): ineffective

CCCC(CCC)C(=O)[O-].[Na+] [Sodium Valproate, Sodium valproate]
% Seizure, group ([2]; 600 mg/kg IP, N = 4): 0.0%
% Seizure ([2]; 600 mg/kg IP, N = 4): 0
F. Clonus ([2]; 600 mg/kg IP, N = 4): 0
Lat H. Movement ([2]; 600 mg/kg IP, N = 4): 0
Straub T. ([2]; 600 mg/kg IP, N = 4): 0
Stun ([2]; 600 mg/kg IP, N = 4): 0
Total (seizure score) ([2]; 600 mg/kg IP, N = 4): 0
Total (seizure score), group mean ([2]; 600 mg/kg IP, N = 4): 0.0
seizure scores (mean±SEM) vs vehicle, post-hoc analysis ([2]; p<0.01): reduction in seizure scores
motor impairment (neurological assessment) (male CD-1 mice; 600 mg/kg IP): noticeable motor impairment on all animals
Neurological Score (male CD-1 mice; 600 mg/kg IP, N = 4): 2
Neurological Score, group mean (male CD-1 mice; 600 mg/kg IP, N = 4): 2.0

NC(=O)N1c2ccccc2C=Cc2ccccc21 [Tegretol]
side effects ([4]; Tegretol (dose unknown)): concerning side effects

NC(=O)N1c2ccccc2CC(=O)c2ccccc21 [Trileptal]
side effects ([4]; Trileptal): concerning side effects

CC(C)(C)C(O)/C=C/c1ccc2c(c1)OCO2 (stereo not drawn) [stiripentol]
myoclonic seizures ([3]; stiripentol added to Depakote and Onfi (and THC 5 mg HS)): resolution of myoclonic seizures
